The source of these data is ChEMBL document CHEMBL5465560, “Selectivity Literature for EUbOPEN Chemogenomic Library” (2024).

The structures appear in SMILES notation.

The target of test [1] is T1, Dual serine/threonine and tyrosine protein kinase (Homo sapiens) (UniProt Q6XUX3).
T1 sequence (whole entry): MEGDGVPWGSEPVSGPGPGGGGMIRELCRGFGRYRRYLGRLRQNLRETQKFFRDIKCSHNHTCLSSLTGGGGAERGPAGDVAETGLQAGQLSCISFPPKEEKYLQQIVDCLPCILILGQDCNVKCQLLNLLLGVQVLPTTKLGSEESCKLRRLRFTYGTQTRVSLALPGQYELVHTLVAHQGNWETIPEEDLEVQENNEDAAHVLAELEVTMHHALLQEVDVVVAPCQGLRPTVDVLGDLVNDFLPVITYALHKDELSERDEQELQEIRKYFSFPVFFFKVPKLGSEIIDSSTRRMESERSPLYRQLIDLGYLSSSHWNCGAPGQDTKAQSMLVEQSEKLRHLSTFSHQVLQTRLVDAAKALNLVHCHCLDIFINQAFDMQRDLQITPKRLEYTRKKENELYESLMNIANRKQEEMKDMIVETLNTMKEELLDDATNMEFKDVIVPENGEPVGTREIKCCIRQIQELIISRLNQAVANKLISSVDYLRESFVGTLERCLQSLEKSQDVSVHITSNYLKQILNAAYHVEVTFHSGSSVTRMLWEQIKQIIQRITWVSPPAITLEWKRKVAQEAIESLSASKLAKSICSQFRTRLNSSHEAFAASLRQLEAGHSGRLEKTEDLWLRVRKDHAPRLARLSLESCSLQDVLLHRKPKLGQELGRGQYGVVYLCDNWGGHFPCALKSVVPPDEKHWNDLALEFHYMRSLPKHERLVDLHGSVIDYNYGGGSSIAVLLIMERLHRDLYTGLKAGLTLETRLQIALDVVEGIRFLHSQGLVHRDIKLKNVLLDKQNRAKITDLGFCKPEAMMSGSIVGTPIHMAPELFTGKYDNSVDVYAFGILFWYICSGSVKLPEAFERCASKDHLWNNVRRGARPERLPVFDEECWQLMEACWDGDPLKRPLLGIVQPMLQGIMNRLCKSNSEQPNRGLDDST
Nature of the test: Selectivity interaction (ProQinase) EUB0000171b DSTYK.

The target of test [2] is Serine/threonine-protein kinase Chk2 (Homo sapiens) (UniProt O96017). Nature of the test: Selectivity interaction (ProQinase) EUB0000171b CHEK2.
Chain of Serine/threonine-protein kinase Chk2 (Homo sapiens) (O96017 whole entry): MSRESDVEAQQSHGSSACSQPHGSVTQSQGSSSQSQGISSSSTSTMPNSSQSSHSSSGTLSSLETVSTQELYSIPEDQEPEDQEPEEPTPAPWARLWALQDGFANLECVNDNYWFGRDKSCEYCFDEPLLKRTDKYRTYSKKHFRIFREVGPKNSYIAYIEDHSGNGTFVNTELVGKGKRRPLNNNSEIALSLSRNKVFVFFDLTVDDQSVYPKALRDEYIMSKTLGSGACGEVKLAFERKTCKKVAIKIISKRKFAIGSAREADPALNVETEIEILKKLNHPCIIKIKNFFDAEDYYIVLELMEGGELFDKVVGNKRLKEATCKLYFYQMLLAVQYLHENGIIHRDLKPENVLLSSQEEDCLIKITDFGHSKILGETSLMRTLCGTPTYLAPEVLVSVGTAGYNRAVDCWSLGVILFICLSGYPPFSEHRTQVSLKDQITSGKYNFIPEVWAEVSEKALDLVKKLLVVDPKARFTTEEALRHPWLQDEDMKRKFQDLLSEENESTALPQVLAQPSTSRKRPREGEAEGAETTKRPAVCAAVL
In test [3] the target is T2, Dual specificity tyrosine-phosphorylation-regulated kinase 2 (Homo sapiens) (UniProt Q92630).
T2 sequence (whole entry): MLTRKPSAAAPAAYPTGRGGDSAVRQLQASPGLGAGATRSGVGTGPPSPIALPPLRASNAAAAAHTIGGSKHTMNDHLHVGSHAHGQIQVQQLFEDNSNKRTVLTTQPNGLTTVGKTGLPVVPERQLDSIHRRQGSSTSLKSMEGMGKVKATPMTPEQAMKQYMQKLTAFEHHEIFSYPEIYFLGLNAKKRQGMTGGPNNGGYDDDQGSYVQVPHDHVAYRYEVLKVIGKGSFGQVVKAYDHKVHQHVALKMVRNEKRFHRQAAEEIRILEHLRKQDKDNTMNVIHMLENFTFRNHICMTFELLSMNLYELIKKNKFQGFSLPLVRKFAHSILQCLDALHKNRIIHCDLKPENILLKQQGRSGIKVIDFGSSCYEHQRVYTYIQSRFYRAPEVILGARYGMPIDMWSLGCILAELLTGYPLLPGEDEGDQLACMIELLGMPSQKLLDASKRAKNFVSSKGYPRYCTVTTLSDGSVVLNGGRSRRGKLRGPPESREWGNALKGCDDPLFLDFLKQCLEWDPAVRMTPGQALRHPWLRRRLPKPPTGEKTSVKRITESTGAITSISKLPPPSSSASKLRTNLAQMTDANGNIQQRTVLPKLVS
Nature of the test: Selectivity interaction (Ambit KINOMEscan and KiNATiv profiling in Jurkat cells) EUB0000090b DYRK2. The test is classed as cell-based. The following applies: at 1 µM.

Test [4] has as its target Serine/threonine-protein kinase MARK2 (Homo sapiens) (UniProt Q7KZI7). The conditions noted are these: at 10 µM.
Test [5] concerns the target Misshapen-like kinase 1 (Homo sapiens, UniProt Q8N4C8). In words: Selectivity interaction (KinomeScan (DiscoverX)) EUB0001079a MINK1. The following applies: at 1 µM.
Test [6] addresses Eukaryotic translation initiation factor 2-alpha kinase 1 (Homo sapiens) (UniProt Q9BQI3). In words: Selectivity interaction (KinomeScan (DiscoverX)) EUB0001079a EIF2AK1. The following applies: at 1 µM.
Test [7] addresses Microtubule-associated serine/threonine-protein kinase 1 (Homo sapiens) (UniProt Q9Y2H9). In words: Selectivity interaction (KinomeScan (DiscoverX)) EUB0000655a MAST1. The following applies: at 10 µM.
Test [8] has as its target Non-receptor tyrosine-protein kinase TYK2 (Homo sapiens, UniProt P29597). In words: Selectivity interaction (KinomeScan (DiscoverX)) EUB0000666a TYK2. The following applies: at 10 µM.
In test [9] the target is Ribosomal protein S6 kinase alpha-5 (Homo sapiens) (UniProt O75582). Nature of the test: Selectivity interaction (KinomeScan (DiscoverX)) EUB0000666a RPS6KA5. The following applies: at 10 µM.
The target of test [10] is T3, Rhodopsin kinase GRK1 (Homo sapiens) (UniProt Q15835).
T3 sequence (whole entry): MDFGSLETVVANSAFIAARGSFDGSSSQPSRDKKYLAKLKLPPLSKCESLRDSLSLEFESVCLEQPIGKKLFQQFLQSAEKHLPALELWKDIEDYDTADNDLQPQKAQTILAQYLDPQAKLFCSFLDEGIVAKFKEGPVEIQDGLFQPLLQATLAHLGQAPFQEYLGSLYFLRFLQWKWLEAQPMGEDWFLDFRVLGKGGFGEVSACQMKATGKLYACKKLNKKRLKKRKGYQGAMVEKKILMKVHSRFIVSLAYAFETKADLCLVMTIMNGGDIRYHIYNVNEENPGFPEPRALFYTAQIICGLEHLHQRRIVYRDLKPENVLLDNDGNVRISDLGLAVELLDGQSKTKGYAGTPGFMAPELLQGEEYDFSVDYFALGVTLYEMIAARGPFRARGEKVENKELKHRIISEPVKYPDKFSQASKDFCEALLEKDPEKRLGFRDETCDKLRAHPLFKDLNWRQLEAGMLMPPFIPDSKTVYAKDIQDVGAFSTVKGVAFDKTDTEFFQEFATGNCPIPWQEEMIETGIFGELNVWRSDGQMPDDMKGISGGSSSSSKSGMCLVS
Nature of the test: Selectivity interaction (LanthaScreen Eu Kinase Binding Assay) EUB0001632a GRK1. The following applies: at 10 µM. A general note: Time-resolved FRET reads energy transfer from a long-lived donor to a nearby acceptor.

Test [11] concerns the target Histone-lysine N-methyltransferase 2C (Homo sapiens) (UniProt Q8NEZ4). The conditions noted are these: at 10 µM.
The target in test [12] is Microtubule-associated serine/threonine-protein kinase 3 (Homo sapiens) (UniProt O60307). Nature of the test: Selectivity interaction (Kinase panel (KiNativ target engagement assay in Jurkat cells)) EUB0001635a MAST3. The test is classed as cell-based. The following applies: Selectivity number of off-targets 0.0, Selectivity number of targets 233.0, Source Knowledge https://www.sciencedirect.com/science/article/pii/S2451945619300674?via%3Dihub, at 1 µM.

In test [13] the target is Ribosomal protein S6 kinase alpha-3 (Homo sapiens, UniProt P51812). In words: Selectivity interaction (KinomeScan (DiscoverX)) EUB0000618a RPS6KA3. The conditions noted are these: at 10 µM.
Chain of Ribosomal protein S6 kinase alpha-3 (P51812 whole entry): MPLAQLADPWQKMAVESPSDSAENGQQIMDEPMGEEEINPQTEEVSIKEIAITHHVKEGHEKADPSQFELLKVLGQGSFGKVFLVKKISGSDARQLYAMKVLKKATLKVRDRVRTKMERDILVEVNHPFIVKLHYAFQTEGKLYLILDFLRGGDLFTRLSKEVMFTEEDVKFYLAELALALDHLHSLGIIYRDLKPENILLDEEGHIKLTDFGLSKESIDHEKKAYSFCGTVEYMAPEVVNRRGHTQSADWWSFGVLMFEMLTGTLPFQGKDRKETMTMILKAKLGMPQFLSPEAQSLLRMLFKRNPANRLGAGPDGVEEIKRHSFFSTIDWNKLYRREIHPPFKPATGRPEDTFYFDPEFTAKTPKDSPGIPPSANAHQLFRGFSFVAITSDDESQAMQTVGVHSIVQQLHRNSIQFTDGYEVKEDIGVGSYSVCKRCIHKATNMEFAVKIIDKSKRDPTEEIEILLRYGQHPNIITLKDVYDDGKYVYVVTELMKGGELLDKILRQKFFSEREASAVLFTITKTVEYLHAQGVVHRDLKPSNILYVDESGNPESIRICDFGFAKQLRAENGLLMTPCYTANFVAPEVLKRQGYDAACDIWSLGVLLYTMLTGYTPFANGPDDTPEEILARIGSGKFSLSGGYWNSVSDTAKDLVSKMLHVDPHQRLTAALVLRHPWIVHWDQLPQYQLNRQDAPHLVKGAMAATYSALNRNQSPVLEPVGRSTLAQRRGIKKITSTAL

Chain of Misshapen-like kinase 1 (Q8N4C8 whole entry, looked up): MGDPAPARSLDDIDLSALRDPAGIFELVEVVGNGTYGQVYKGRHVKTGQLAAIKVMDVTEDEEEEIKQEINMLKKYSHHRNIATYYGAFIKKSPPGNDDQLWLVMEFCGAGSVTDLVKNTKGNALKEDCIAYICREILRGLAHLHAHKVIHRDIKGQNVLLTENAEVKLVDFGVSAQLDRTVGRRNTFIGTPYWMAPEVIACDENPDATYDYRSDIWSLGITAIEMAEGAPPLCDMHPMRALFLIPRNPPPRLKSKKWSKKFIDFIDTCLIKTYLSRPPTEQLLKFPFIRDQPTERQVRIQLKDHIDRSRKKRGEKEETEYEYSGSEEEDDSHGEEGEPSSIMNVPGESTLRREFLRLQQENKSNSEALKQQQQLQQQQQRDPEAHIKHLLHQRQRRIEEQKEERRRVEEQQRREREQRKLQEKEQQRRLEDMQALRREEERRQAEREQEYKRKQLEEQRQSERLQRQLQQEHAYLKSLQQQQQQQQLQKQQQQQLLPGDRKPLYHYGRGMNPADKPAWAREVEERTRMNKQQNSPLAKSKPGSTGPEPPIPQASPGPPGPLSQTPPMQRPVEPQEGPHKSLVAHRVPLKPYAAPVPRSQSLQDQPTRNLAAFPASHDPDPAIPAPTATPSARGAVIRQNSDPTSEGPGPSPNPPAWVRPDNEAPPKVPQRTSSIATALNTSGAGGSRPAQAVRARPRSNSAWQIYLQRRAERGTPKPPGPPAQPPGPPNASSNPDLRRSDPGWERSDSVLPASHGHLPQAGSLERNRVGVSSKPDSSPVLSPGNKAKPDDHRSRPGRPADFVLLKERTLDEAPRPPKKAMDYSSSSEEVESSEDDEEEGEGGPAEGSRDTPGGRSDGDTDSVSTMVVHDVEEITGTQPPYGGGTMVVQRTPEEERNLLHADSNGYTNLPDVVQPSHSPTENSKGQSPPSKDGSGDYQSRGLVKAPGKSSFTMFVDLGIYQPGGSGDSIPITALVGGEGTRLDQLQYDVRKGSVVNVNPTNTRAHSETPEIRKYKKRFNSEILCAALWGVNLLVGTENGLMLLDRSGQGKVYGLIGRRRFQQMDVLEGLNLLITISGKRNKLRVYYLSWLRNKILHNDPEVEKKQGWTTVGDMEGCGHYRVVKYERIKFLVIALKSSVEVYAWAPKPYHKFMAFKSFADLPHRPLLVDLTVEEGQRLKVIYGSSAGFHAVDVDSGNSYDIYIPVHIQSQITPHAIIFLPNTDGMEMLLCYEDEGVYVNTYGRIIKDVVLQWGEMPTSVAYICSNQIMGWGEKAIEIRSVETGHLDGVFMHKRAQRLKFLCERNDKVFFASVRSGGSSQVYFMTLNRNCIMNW
Chain of Microtubule-associated serine/threonine-protein kinase 1 (Homo sapiens) (Q9Y2H9 whole entry, looked up): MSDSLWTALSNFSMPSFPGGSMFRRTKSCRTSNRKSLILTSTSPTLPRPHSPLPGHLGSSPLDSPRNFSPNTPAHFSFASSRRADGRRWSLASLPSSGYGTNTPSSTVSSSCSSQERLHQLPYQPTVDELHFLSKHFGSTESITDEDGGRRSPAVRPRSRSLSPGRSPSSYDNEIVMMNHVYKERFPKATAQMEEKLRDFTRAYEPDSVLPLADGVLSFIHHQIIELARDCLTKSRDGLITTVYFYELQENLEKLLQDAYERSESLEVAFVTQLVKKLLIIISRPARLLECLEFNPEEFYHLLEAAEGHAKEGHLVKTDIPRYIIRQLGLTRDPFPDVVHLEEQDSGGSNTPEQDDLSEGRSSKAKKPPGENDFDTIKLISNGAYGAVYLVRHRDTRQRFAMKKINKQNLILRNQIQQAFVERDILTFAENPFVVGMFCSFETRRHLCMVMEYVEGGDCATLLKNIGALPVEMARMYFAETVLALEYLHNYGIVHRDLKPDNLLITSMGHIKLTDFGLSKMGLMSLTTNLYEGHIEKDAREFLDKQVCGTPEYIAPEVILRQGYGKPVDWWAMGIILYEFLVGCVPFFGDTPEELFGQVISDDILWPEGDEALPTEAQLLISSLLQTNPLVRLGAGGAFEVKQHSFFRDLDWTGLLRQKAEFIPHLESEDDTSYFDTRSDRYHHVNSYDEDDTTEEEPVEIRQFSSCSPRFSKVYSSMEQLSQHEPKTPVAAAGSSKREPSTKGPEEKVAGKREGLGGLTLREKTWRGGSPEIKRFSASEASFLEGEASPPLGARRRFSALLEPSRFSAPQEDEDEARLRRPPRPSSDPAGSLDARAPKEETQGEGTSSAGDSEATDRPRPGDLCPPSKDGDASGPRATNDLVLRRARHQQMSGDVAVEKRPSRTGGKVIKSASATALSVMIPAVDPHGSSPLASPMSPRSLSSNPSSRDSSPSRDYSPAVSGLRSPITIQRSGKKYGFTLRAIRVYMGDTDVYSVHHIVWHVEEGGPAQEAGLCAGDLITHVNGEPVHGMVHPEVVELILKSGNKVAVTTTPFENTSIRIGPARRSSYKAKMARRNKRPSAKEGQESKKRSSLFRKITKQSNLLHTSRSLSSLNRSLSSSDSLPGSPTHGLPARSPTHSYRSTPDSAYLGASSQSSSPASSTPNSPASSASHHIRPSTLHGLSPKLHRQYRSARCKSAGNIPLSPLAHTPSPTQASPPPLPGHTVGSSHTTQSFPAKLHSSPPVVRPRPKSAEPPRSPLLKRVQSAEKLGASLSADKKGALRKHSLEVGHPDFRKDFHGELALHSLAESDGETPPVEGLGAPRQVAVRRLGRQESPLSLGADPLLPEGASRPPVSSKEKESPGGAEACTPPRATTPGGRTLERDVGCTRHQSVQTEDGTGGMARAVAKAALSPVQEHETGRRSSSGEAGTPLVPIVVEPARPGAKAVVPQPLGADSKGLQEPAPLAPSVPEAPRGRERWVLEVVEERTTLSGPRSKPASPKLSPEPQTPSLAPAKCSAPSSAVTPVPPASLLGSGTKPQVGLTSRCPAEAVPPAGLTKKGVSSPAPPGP
Chain of Eukaryotic translation initiation factor 2-alpha kinase 1 (Homo sapiens) (Q9BQI3 whole entry): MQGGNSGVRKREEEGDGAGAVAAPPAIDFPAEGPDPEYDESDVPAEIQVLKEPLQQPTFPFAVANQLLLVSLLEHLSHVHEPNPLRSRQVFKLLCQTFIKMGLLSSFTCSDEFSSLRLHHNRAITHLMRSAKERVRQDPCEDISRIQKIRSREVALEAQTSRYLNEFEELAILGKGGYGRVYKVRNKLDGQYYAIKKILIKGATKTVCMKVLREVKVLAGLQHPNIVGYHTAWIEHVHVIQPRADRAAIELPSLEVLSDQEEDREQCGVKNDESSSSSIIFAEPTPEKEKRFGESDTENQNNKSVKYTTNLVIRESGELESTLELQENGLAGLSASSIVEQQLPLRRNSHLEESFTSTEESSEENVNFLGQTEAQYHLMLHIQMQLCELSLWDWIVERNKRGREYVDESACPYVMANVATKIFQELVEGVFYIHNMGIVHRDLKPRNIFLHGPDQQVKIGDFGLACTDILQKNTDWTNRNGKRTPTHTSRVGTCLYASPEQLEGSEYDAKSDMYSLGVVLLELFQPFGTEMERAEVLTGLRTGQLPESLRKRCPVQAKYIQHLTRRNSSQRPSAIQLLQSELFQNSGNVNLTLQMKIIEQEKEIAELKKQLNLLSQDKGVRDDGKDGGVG

Take `C=CC(=O)Nc1cccc(C(=O)Nc2ccc(Nc3cc(-c4[nH]c(SC)nc4C)ccn3)cc2)c1`: the % of control in test [1] (at 1 µM) is 90%; in test [1] (at 5 µM) it was 67%; in test [2] (at 1 µM), 70%; in test [2] (at 5 µM) it was 36%.

Take `CN(C)C/C=C/C(=O)Nc1ccc(C(=O)N2CCCC(Nc3ncc(Cl)c(-c4c[nH]c5ccccc45)n3)C2)cc1` (stereo not given): the % of control in [3] was 7.4%.

In turn, `CCN(CC)CCCCNc1ncc2cc(-c3cc(OC)cc(OC)c3)c(NC(=O)NC(C)(C)C)nc2n1` displayed a % of control in test [4] of 100%.

On to `Nc1cnc(N2CCc3cc(S(=O)(=O)Nc4c(F)cc(Cl)cc4F)cc(N4CCCC4=O)c32)nc1` [TP-020n], for which the % of control came to 100% in test [5] and 94% in [6].

Compound `CN(C)CCOc1ccc(-c2nc(-c3ccncc3)c(-c3ccc4c(c3)CC/C4=N\O)[nH]2)cc1` gave a % of control in test [7] of 100%.

Regarding `O=C(NOC[C@H](O)CO)c1ccc(F)c(F)c1Nc1ccc(I)cc1F`, the figures for the % of control in test [8] and in test [9] were 100% and 87%, respectively.

Consider `Cn1cc(-n2cnc3c(NCc4nc5cc(Cl)c(Cl)cc5[nH]4)nc(N4CCOCC4)nc32)cn1`, for which, in [10], the % of inhibition was -16.5%.

`CNCCN1CCC(c2cc(CN(C)C(=O)c3cccc(Oc4ccccc4)c3)ccn2)CC1` displayed a % activity in test [11] of over 90%.

With `C=CC(=O)Nc1ccc(C(=O)Nc2[nH]nc3c2CN(C(=O)N[C@H](CN(C)C)c2ccccc2)C3(C)C)cc1`, the % of engagement in test [12] was -0.8%.

In test [13], `O[C@H]1CC[C@H](Nc2ncc3nc(Nc4c(F)cc(F)cc4F)n([C@H]4CCOC4)c3n2)CC1` showed a % of control of 60%.
